Experiment [1] concerns the target T1, NRF2/Keap1 (Homo sapiens, UniProt Q14145).
T1 construct: full length NRF2 protein and full length Keap1 protein (Keap1 exists a dimer) are used
In words: NRF2-Keap1 TR-FRET Assay (full length NRF2 and full length Keap1). The format is binding. The note with it: 25 nM Keap1-FlagHis, 50 nM biotin-NRF2 added. From the text:
In the NRF2-Keap1 TR-FRET (time-resolved fluorescence resonance energy transfer) assay, full length NRF2 protein and full length Keap1 protein (Keap1 exists a dimer) are used. The assay detects the ability of compound to displace the binding of FlagHis-tagged Keap1 with biotinylated, Avi-tagged NRF2 protein. Biotin-NRF2 binds to streptavidin-europium (a component of the detection mix) and Keap1-FlagHis is recognized by anti-Flag APC (allophycocyanin) antibody (also a component of the detection mix). If binding occurs between the two proteins, there will be an energy transfer from the Eu+3 (donor) at 615 nm to the APC (acceptor) at 665 nm. A potential Keap1 inhibitor will cause a reduction in the TR-FRET signal by interfering with the binding of Keap1 to NRF2.
One hundred nanoliters of 100× compound dose response curves (serial 3-fold dilutions) in DMSO are stamped using an Echo liquid handling system (Labcyte) into 384-well, low volume, black assay plates (Greiner, #784076), with DMSO in columns 6 and 18. The top concentration of compound is located in columns 1 and 13. All reagents are diluted in assay buffer (50 mM Tris, pH 8.0, 5 mM MgCl2, 100 mM NaCl, 0.005% BSA, 1 mM DTT, and 2 mM CHAPS). The BSA, DTT, and CHAPS are added to the assay buffer on the day of assay. Using a Multidrop Combi (Thermo Electron Corporation) equipped with a metal tip dispenser, 5 ul of 25 nM Keap1-FlagHis protein is added to all wells of the compound plate, with the exception of the wells in column 18. Wells in column 18 receive 5 ul of assay buffer instead. Plates are centrifuged at 500 rpm for 1 minute, covered with a plate lid, and incubated at 37° C. for 2.25 hours. Plates are then removed from the incubator and allowed to cool to RT for 15 minutes. Five microliters of 50 nM biotin-NRF2 protein is then added to all wells of the plates and the plates are spun at 500 rpm for 1 minute, followed by incubating at 4° C. for 1.25 hours. The plates are then allowed to warm to RT for 15 minutes, followed by the addition of 10 ul of detection mix (1 nM Streptavidin Eu+ W1024 and 5 ug/ml mouse anti-DYKDDDDK IgG conjugated to SureLight APC antibody; both from Columbia Biosciences) to all wells. Plates are spun at 500 rpm for 1 minute, incubated for 1 hour at RT, and read on an Envision plate reader using a 320 nm excitation filter and 615 nm and 665 nm emission filters. Compound response (% inhibition) and potency (pIC50) are calculated based on the ratio of the two emissions (665 nm/615 nm) and then the transformed data is normalized against controls in the assay (control 1=1% DMSO in the presence of NRF2 and Keap1 protein and control 2=1% DMSO in the absence of protein). Data analysis is handled using the software package Abase XE (Surrey, United Kingdom). The % inhibition values are calculated from the ratio (transformed) data by the equation: 100−(100*(compound response-average control 2)/(average control 1−average control 2)).
For calculation of pIC50s, Abase XE uses a four parameter equation.
A general note: TR-FRET usually uses a lanthanide donor and a delayed reading to cut background.

For experiment [2], the system named is NQO1 specific enzyme activity in BEAS-2B cells. In words: BEAS-2B NQO1 MTT Assay. The note with it: NQO1 specific activity induction. The experiment is classed as cell-based. In short, it runs like this:
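BEAS-2B cells exposed to compound for 48 h at 37 °C, 5% CO2, then lysed. NQO1 activity in crude lysate read kinetically by MTT cocktail absorbance at 570 nm over 30 min. pEC50 from ΔOD/min versus log concentration, 3-parameter fit.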

T1 sequence (Q14145 whole entry): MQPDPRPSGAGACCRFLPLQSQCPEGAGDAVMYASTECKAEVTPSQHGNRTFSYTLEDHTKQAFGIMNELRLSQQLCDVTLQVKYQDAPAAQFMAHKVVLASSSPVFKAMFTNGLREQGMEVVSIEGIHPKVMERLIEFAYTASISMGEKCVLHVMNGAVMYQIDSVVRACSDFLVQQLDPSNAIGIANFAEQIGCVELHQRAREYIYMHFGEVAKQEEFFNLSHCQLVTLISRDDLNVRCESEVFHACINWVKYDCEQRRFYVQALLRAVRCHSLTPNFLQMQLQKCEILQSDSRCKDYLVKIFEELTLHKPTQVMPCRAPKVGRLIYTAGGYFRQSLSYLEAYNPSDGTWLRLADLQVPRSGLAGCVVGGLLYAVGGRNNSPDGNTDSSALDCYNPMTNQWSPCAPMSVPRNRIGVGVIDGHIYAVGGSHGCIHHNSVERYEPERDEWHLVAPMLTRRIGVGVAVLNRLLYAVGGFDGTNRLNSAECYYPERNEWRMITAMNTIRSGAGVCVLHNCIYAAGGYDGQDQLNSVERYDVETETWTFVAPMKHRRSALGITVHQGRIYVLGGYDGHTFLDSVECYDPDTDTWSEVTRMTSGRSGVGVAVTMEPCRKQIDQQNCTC

One may read the IC50 as the midpoint of a concentration-inhibition curve. Low readings indicate higher potency, high ones lower potency. Broadly, the EC50 is the concentration at which the effect is half-maximal. Higher therefore signals lower potency in that assay. As for `CCCCC1CCCN1C(=O)C1CCCC(c2cccc(-n3ncc(C(=O)O)c3C3CC3)c2)C1` (racemic) [Example 8c, 1-{3-[3-(2-Butylpyrrolidine-1-carbonyl)cyclohexyl]phenyl}-5-cyclopropyl-1H-pyrazole-4-carboxylic Acid], the half-maximal inhibitory concentration (IC50) in experiment [1] was 100 to 1000 nM. The half-maximal effective concentration (EC50) in experiment [2] (Homo sapiens, BEAS-2B, 48 h) was 100 to 1000 nM.

Take `CC(C)CCC1CCCN1C(=O)C1CCCC(c2cccc(-n3ncc(C(=O)O)c3C3CC3)c2)C1` (racemic) [Example 11, 5-Cyclopropyl-1-(3-{3-[2-(3-methylbutyl)pyrrolidine-1-carbonyl]cyclohexyl}phenyl)-1H-pyrazole-4-carboxylic Acid]: the IC50 in experiment [1] is 100 to 1000 nM. In experiment [2] (Homo sapiens, BEAS-2B, 48 h), the EC50 was 100 to 1000 nM.

As to `O=C(O)c1cnn(-c2cccc(C3CCCC(C(=O)N4CCCC4C4CC4)C3)c2)c1C1CC1` (racemic) [Example 12, 5-cyclopropyl-1-{3-[3-(2-cyclopropylpyrrolidine-1-carbonyl)cyclohexyl]phenyl}-1H-pyrazole-4-carboxylic Acid], the IC50 in experiment [1] was 100 to 1000 nM. In addition, the EC50 in experiment [2] (Homo sapiens, BEAS-2B, 48 h) was 100 to 1000 nM.

For the compound `CC1(C)CCc2cnn([C@@H]3CCC[C@@H](c4cccc(-n5ncc(C(=O)O)c5C5CC5)c4)C3)c21` (racemic) [Example 23, 5-Cyclopropyl-1-(3-(t-3-(6,6-dimethyl-5,6-dihydrocyclopenta[c]pyrazol-1(4H)-yl)cyclohexyl)phenyl)-1H-pyrazole-4-carboxylic Acid], the 50% inhibitory concentration (IC50) in experiment [1] is 10000 to 100000 nM. For the same compound, in experiment [2] (Homo sapiens, BEAS-2B, 48 h), the 50% effective concentration (EC50) lay in the range of 100 to 1000 nM.

For `CCOC[C@@H]1CCCN1C(=O)C1CCCC(c2cccc(-n3ncc(C(=O)O)c3C3CC3)c2)C1` (single isomer, unassigned) [Example 18g], the 50% inhibitory concentration (IC50) in experiment [1] lay within 10 to 100 nM. In addition, in experiment [2] (48 hours), the EC50 was 100 to 1000 nM.

As for `CCCC[C@@H]1CCCN1C(=O)[C@H]1CCC[C@@H](c2cccc(-n3ncc(C(=O)O)c3C3CC3)c2)C1` [Example 17f, 1-{3-[(1R,3S)-3-[(2R)-2-Butylpyrrolidine-1-carbonyl]cyclohexyl]phenyl}-5-cyclopropyl-1H-pyrazole-4-carboxylic Acid], the IC50 in experiment [1] lay in the range of 10 to 100 nM. In experiment [2] (Homo sapiens, BEAS-2B, 48 h), the concentration for a half-maximal effect (EC50) was in the range of 10 to 100 nM.

`O=C(O)c1cnn(-c2cccc(C3=CC(C(=O)N4CCCCCC4)CCC3)c2)c1C1CC1` (stereo not drawn) [Example 19, 1-(5′-(Azepane-1-carbonyl)-2′,3′,4′,5′-tetrahydro-[1,1′-biphenyl]-3-yl)-5-cyclopropyl-1H-pyrazole-4-carboxylic Acid]: the IC50 in experiment [1] fell in the range of 1000 to 10000 nM. In experiment [2] (Homo sapiens, BEAS-2B, 48 h), this compound had a concentration for a half-maximal effect (EC50) of 1000 to 10000 nM.

In turn, `CCCCC1CCc2cnn([C@@H]3CCC[C@@H](c4cccc(-n5ncc(C(=O)O)c5C5CC5)c4)C3)c21` (stereo partly drawn) [Example 38, 1-(3-((1,3-trans)-3-(6-Butyl-5,6-dihydrocyclopenta[c]pyrazol-1(4H)-yl)cyclohexyl)phenyl)-5-cyclopropyl-1H-pyrazole-4-carboxylic Acid] showed an IC50 in experiment [1] of 10000 to 100000 nM. In experiment [2] (48 hours), this compound had an EC50 of 100 to 1000 nM.

`Cn1cc(C2CC2c2c(C(=O)O)cnn2-c2cccc([C@@H]3CCC[C@H](n4ncc5c4C(C)(C)CC5)C3)c2)nn1` (stereo partly drawn) [Example 39, 1-(3-((1R,3S)-3-(6,6-Dimethyl-5,6-dihydrocyclopenta[c]pyrazol-1(4H)-yl)cyclohexyl)phenyl)-5-(2-(1-methyl-1H-1,2,3-triazol-4-yl)cyclopropyl)-1H-pyrazole-4-carboxylic Acid] yielded an IC50 in experiment [1] of 10 to 100 nM. The same compound yielded an EC50 in experiment [2] (Homo sapiens, BEAS-2B, 48 h) of 100 to 1000 nM.

`Cn1cc(C2CC2c2c(C(=O)O)cnn2-c2cccc([C@H]3CCC[C@H](n4ncc5c4C(C)(C)CC5)C3)c2)nn1` (stereo partly drawn) [Example 40, 1-(3-((1,3-trans)-3-(6,6-Dimethyl-5,6-dihydrocyclopenta[c]pyrazol-1(4H)-yl)cyclohexyl)phenyl)-5-(2-(1-methyl-1H-1,2,3-triazol-4-yl)cyclopropyl)-1H-pyrazole-4-carboxylic Acid]: the IC50 in experiment [1] lay within 100 to 1000 nM. Besides, the 50% effective concentration (EC50) in experiment [2] (Homo sapiens, BEAS-2B, 48 h) lay in the range of 1000 to 10000 nM.

Consider `CCCCC1CCCC1N(C)C(=O)C1CCCC(c2cccc(-n3ncc(C(=O)O)c3C3CC3)c2)C1` (stereo not drawn) [Example 41, 1-(3-(3-((2-Butylcyclopentyl)(methyl)carbamoyl)cyclohexyl)phenyl)-5-cyclopropyl-1H-pyrazole-4-carboxylic Acid], for which the IC50 in experiment [1] lay within 1000 to 10000 nM. This compound also showed an EC50 in experiment [2] (Homo sapiens, BEAS-2B, 48 h) of 100 to 1000 nM.

For the compound `CCCCC1CCCN1C(=O)C1CCCC(c2cccc(-n3ncc(C(=O)O)c3C3CC3c3cn(C)nn3)c2)C1` (stereo not drawn) [Example 42, 1-(3-(3-(2-Butylpyrrolidine-1-carbonyl)cyclohexyl)phenyl)-5-(2-(1-methyl-1H-1,2,3-triazol-4-yl)cyclopropyl)-1H-pyrazole-4-carboxylic Acid], the IC50 in experiment [1] fell in the range of 100 to 1000 nM. This compound showed an EC50 in experiment [2] (Homo sapiens, BEAS-2B, 48 h) of 1000 to 10000 nM.

These data come from patent publication US10351530B2, “Arylcyclohexyl pyrazoles as NRF2 regulators” (GlaxoSmithKline Intellectual Property Development Limited, priority 2015, dated 2019).
